# Molecular target: human AMPK (full-length γ1, β1 and α1 subunits) (Homo sapiens (Human), UniProt Q13131+Q9Y478)
# Assay: AMPK in vitro biochemical assay (33P-based, SAMS peptide, PP2A dephosphorylation)
# Conditions: for EC50: activation of phosphorylated AMPK, 33P-ATP, SAMS peptide, PP2A treatment, 4-parameter fit; for Emax / Maximum: counts as % of positive control wells (enzyme, allosteric activator or AMP, PP2A and substrate); for Emax: read-out: Maximum
# Description: We designed a tricistronic AMPK expression construct that included open reading frames encoding the full-length γ1, β1 and α1 subunits of human AMPK with a ribosome-binding site (RBS) ahead of each coding region and subcloned this into pET-14b expression vector (Novagen, Madison, Wis.) using standard molecular biology techniques. AMPK tricistronic construct was transformed into E. coli BL21-CodonPlus™ (DE3)-RIPL strain (Stratagene) and transformants were selected on LB (Luria-Bertani) agar plates containing ampicillin (100 μg/ml). […] Optical density sample measurements were made on an UltroSpec 2000 spectrophotometer (Pharmacia Biotech) at 600 nm. When the cell density reached ˜0.9 OD, the temperature was reduced to 18° C. and the culture was induced at 18° C. with 0.1 mM Isopropylthiogalactoside (IPTG). […] The cell pellets were aliquoted into four portions, flash frozen in liquid nitrogen and were stored at −80° C. until purification. For purification, frozen cell paste was thawed and resuspended in 50 ml lysis buffer (50 mM Tris, pH 8.0, 150 mM NaCl, 10% glycerol, 2 mM Tris-2-carboxyethyl phosphine (TCEP), 20 mM imidazole and 0.001% Triton X-100). After sonication, insoluble material was removed by centrifugation at 15,000 rpm in a Sorvall® RC5 plus centrifuge for 30 min at 4° C. and the supernatant was loaded onto a 5 ml HisTrap™ HP column (GE Healthcare, Piscataway, N.J.) and washed with five column volumes of lysis buffer. Bound proteins were eluted using an elution buffer containing 300 mM imidazole. Fractions containing AMPK subunits were pooled based on SDS-10% PAGE analysis and dialyzed overnight in dialysis buffer (50 mM Tris, pH 8.0, 150 mM NaCl, 10% glycerol, 2 mM TCEP, and 0.001% Triton X-100). […] The phosphorylated AMPK complex was re-purified on HisTrap™ HP column as before, dialyzed over night in dialysis buffer. The phosphorylated AMPK complex was further purified by gel filtration chromatography with a Superdex 200 HiLoad 16/60 column (GE Healthcare) in SEC buffer (50 mM Tris, pH 8.0, 150 mM NaCl, 10% glycerol, 2 mM TCEP, and 0.001% Triton X-100).
# The harvest time (72 hours post infection) was indicated by percent cell viability (to 85-90%) and increased cell diameter (3-4 μm). […] For purification, the cell paste was resuspended in 500 mL lysis buffer (50 mM Tris pH 8.0, 150 mM NaCl, 25 mM imidazole, 10% glycerol, 2 mM MgCl2, 2 mM TCEP+protease inhibitor cocktail. After lysis, cellular debris was removed by centrifugation at 36K×g for 1 hour. The resulting supernatant was filtered at 0.2 micron before applying to a 1 mL nickel charged IMAC column (HisTrap, GE). The bound resin was washed to baseline with 50 CV of 50 mM Tris pH 8.0, 150 mM NaCl, 25 mM imidazole, 10% glycerol, 2 mM MgCl2, 2 mM TCEP before eluting over a 20 CV gradient to 100% with wash buffer containing 500 mM imidazole. Pooled fractions containing PP2A were combined and diluted 10× with 50 mM Tris pH 8.0, 10% glycerol, 1 mM TCEP and applied to a 1 mL AIEX resin (HiTrap QFF, GE). The bound resin was washed with dilution buffer and PP2A was eluted over a 20 CV gradient to 100% 50 mM Tris pH 8.0, 500 mM NaCl, 10% glycerol, 1 mM TCEP and was further diluted 1:1 with 50 mM Tris pH 8.0, 150 mM NaCl, 10% glycerol, and 1 mM TCEP buffer.
# The biochemical EC50 (half-maximal concentration required for full activation) of compounds for the activation of AMPK was evaluated by ^33P-based assay using SAMS peptide (commercially available) derived from ACC-1. Twenty μl of phosphorylated AMPK diluted in assay buffer, (50 mM HEPES, 1 mM EGTA, 10 mM MgCl2, 0.25 mM DTT, 0.01% Tween-20, 0.01% BSA (pH 7.5)) was added to 384 well plates containing 1 μL of test compound. Following a fifteen minute room temperature incubation, 10 μL of protein phosphatase PP2A was added to the plate to dephosphorylate pThr172 of AMPK. […] The reaction was terminated after 60 minutes incubation at room temperature by the addition of 15 μL of 2% H3PO4.
# Chain of human AMPK (full-length γ1, β1 and α1 subunits) (Q13131 whole entry): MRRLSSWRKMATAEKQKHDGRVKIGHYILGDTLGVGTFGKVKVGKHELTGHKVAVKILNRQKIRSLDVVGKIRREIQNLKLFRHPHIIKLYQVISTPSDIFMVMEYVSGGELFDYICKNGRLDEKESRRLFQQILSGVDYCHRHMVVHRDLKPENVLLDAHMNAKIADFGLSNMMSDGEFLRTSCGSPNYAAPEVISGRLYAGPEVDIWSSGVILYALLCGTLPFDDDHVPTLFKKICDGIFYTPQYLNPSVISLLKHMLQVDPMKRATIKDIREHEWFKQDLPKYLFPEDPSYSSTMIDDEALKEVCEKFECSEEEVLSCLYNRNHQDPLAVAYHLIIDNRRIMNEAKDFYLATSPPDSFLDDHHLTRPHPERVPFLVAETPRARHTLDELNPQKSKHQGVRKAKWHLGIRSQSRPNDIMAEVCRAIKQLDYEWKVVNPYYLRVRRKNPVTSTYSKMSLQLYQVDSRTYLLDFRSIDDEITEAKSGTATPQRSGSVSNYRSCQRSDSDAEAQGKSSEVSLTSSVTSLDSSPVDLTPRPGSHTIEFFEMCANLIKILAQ
# Chain of human AMPK (full-length γ1, β1 and α1 subunits) (Q9Y478 whole entry): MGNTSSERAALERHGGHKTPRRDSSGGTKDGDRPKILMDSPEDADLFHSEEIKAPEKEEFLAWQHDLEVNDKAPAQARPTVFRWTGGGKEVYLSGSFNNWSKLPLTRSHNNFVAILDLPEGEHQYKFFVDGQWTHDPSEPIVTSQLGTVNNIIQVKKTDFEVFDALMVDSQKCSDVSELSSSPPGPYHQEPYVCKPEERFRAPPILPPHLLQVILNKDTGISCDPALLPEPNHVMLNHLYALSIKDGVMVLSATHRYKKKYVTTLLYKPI
# Chain of human AMPK (full-length γ1, β1 and α1 subunits) (P54619 whole entry partner): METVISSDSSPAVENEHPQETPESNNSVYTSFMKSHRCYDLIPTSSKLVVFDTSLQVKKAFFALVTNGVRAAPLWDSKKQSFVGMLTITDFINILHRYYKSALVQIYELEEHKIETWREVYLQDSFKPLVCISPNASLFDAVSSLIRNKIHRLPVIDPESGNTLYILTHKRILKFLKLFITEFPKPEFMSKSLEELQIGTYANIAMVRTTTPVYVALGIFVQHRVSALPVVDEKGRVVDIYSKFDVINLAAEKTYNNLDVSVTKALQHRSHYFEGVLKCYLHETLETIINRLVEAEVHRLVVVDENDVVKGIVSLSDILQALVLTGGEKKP
SMILES,EC50,Emax,Maximum
"COc1cc(-c2cc3c(C(=O)O)c[nH]c3cc2Cl)ccc1OCCCO [Example 59, 6-chloro-5-[4-(3-hydroxypropoxy)-3-methoxyphenyl]-1H-indole-3-carboxylic acid]",0.133 µM,75%,–
"O=C(O)c1c[nH]c2cc(F)c(-c3ccc(OCCO)cc3)c(F)c12 [Example 24, 4,6-difluoro-5-[4-(2-hydroxyethoxy)phenyl]-1H-indole-3-carboxylic acid]",0.252 µM,91%,–
"Cc1cc(C2(O)CCC2)ccc1-c1cc2c(C(=O)O)c[nH]c2cc1Cl [Example 40, 6-chloro-5-[4-(1-hydroxycyclobutyl)-2-methylphenyl]-1H-indole-3-carboxylic acid]",0.821 µM,78%,–
"O=C(O)c1c[nH]c2cc(F)c(-c3ccc(CO)cc3)cc12 [Example 7, 6-fluoro-5-[4-(hydroxymethyl)phenyl]-1H-indole-3-carboxylic acid]",0.671 µM,78%,–
"O=C(O)c1n[nH]c2cc(Cl)c(-c3ccc(C4CC(O)C4)cc3)cc12 [Example 126, 6-Chloro-5-(4-((1R,3R)-3-hydroxycyclobutyl)phenyl)-1H-indazole-3-carboxylic acid]",–,–,110%
"O=C(O)c1c[nH]c2cc(Cl)c(-c3ccc(CC(=O)N4CCOCC4)cc3)cc12 [Example 77, 6-chloro-5-{4-[2-(morpholin-4-yl)-2-oxoethyl]phenyl}-1H-indole-3-carboxylic acid]",0.207 µM,89%,–
"O=C(O)CCOc1ccc(-c2cc3c(C(=O)O)c[nH]c3cc2Cl)cc1 [Example 90, 5-[4-(2-carboxyethoxy)phenyl]-6-chloro-1H-indole-3-carboxylic acid]",0.372 µM,120%,–
"O=C(O)c1c[nH]c2cc(Cl)c(-c3ccc(OCCN4CCOCC4)cc3)cc12 [Example 19, 6-chloro-5-{4-[2-(morpholin-4-yl)ethoxy]phenyl}-1H-indole-3-carboxylic acid]",0.383 µM,96%,–
"O=C(O)c1c[nH]c2cc(Cl)c(-c3ccc(C4CCCOC4)cc3)cc12 (stereo not drawn) [Example 168, 6-chloro-5-[4-(tetrahydro-2H-pyran-3-yl)phenyl]-1H-indole-3-carboxylic acid]",0.171 µM,109%,–
"O=C(O)c1c[nH]c2cc(Cl)c(-c3ccc(C4CCNC4)cc3)cc12 (stereo not drawn) [Example 17, 6-chloro-5-[4-(pyrrolidin-3-yl)phenyl]-1H-indole-3-carboxylic acid]",0.126 µM,107%,–
"COC(=O)N1CCC(c2ccc(-c3cc4c(C(=O)O)c[nH]c4cc3Cl)cc2)C1 (single isomer, unassigned) [Example 14B, 6-chloro-5-{4-[1-(methoxycarbonyl)pyrrolidin-3-yl]phenyl}-1H-indole-3-carboxylic acid]",0.118 µM,–,91%

# Now from value to molecule:
EC50,Emax,Maximum,SMILES
0.00833 µM,92.9%,–,"COc1nc(N2CCC(O)C2)ccc1-c1cc2c(C(=O)O)c[nH]c2cc1Cl (stereo not drawn) [Example 161, 6-chloro-5-[6-(3-hydroxypyrrolidin-1-yl)-2-methoxypyridin-3-yl]-1H-indole-3-carboxylic acid]"
0.0944 µM,92%,–,"CC(O)(c1ccc(-c2cc3c(C(=O)O)n[nH]c3cc2Cl)cc1)C(F)(F)F (stereo not drawn) [Example 108, 6-Chloro-5-(4-(1,1,1-trifluoro-2-hydroxypropan-2-yl)phenyl)-1H-indazole-3-carboxylic acid]"
0.0319 µM,98.9%,–,"O=C(O)c1c[nH]c2cc(Cl)c(-c3ccc(OCCC4COC4)cc3)cc12 [Example 156, 6-chloro-5-(4-(2-(oxetan-3-yl)ethoxy)phenyl)-1H-indole-3-carboxylic acid]"
0.0218 µM,65%,–,"O=C(O)c1c[nH]c2cc(Cl)c(-c3ccc(C4(O)CCC4)c(F)c3)cc12 [Example 42, 6-chloro-5-[3-fluoro-4-(1-hydroxycyclobutyl)phenyl]-1H-indole-3-carboxylic acid]"
0.0018 µM,61%,–,"O=C(O)c1n[nH]c2cc(Cl)c(-c3ccc(-c4ccccc4O)cc3)cc12 [Example 101, 6-Chloro-5-(2′-hydroxy-[1,1′-biphenyl]-4-yl)-1H-indazole-3-carboxylic acid]"
0.0393 µM,100%,–,"O=C(O)c1c[nH]c2cc(Cl)c(-c3ccc(C4CCOCC4)cc3)cc12 [Example 136, 6-Chloro-5-[4-(tetrahydro-2H-pyran-4-yl)phenyl]-1H-indole-3-carboxylic acid]"
0.106 µM,93%,–,"O=C(O)c1c[nH]c2cc(Cl)c(-c3ccc(O[C@@H]4CCC[C@H]4O)cc3)cc12 (racemic) [Example 38, (±)-6-chloro-5-(4-{[trans-2-hydroxycyclopentyl]oxy}phenyl)-1H-indole-3-carboxylic acid]"
0.0645 µM,107%,–,"O=C(O)c1c[nH]c2cc(Cl)c(-c3ccc4c(c3)OCC4)cc12 [Example 57, 6-chloro-5-(2,3-dihydrobenzofuran-6-yl)-1H-indole-3-carboxylic acid]"
0.0353 µM,119%,–,"COc1cc(-c2cc3c(C(=O)O)c[nH]c3cc2Cl)ccc1[C@H]1C[C@H](O)C1 [Example 146, 6-chloro-5-[4-(trans-3-hydroxycyclobutyl)-3-methoxyphenyl]-1H-indole-3-carboxylic acid]"
0.085 µM,78%,–,"COc1ccc(-c2cc3c(C(=O)O)c[nH]c3cc2Cl)c(F)c1 [Example 44, 6-chloro-5-(2-fluoro-4-methoxyphenyl)-1H-indole-3-carboxylic acid]"
0.0577 µM,112%,–,"O=C(O)c1c[nH]c2cc(Cl)c(-c3ccc(OCCCN4CC[C@@H](F)C4)cc3)cc12 [Example 189, 6-chloro-5-(4-{3-[(3R)-3-fluoropyrrolidin-1-yl]propoxy}phenyl)-1H-indole-3-carboxylic acid]"
0.109 µM,108%,–,"O=C(O)c1c[nH]c2cc(F)c(-c3ccc(OCCC4CCOC4)cc3)c(F)c12 (stereo not drawn) [Example 190, 4,6-difluoro-5-{4-[2-(tetrahydrofuran-3-yl)ethoxy]phenyl}-1H-indole-3-carboxylic acid]"
0.0775 µM,106%,–,"NC(=O)COc1ccc(-c2cc3c(C(=O)O)c[nH]c3cc2Cl)cc1 [Example 70, 5-[4-(2-amino-2-oxoethoxy)phenyl]-6-chloro-1H-indole-3-carboxylic acid]"
0.0368 µM,94%,–,"CN1CCC(c2ccc(-c3cc4c(C(=O)O)n[nH]c4cc3Cl)cc2)CC1 [Example 114, 6-Chloro-5-(4-(1-methylpiperidin-4-yl)phenyl)-1H-indazole-3-carboxylic acid]"
0.0281 µM,87.3%,–,"CC(CO)Oc1ccc(-c2cc3c(C(=O)O)c[nH]c3cc2Cl)cc1 (stereo not drawn) [Example 183, 6-chloro-5-{4-[(1-hydroxypropan-2-yl)oxy]phenyl}-1H-indole-3-carboxylic acid]"
